# Measurements from ChEMBL document CHEMBL1130551, “Synthesis and progesterone receptor binding affinity of substituted 1-phenyl-7-benzyl-4,5,6,7-tetrahydro-1-indazoles” (Bioorg Med Chem Lett, 1997).
# Calls of active or inactive are those of the source. No cut-off for these calls is given here.
# Tests used:
# T47D [1] = assay: Agonistic activity in T47D human breast carcinoma cell proliferation assay; Not active; assay type: functional, cell-based
# Progesterone receptor [2] = target: T1, Progesterone receptor (Oryctolagus cuniculus, UniProt P06186); assay: Binding affinity determined by ability to displace [3H]R5020 radioligand using uterine progesterone receptor obtained from estrogen-primed rabbit
# T1 sequence (P06186 whole entry): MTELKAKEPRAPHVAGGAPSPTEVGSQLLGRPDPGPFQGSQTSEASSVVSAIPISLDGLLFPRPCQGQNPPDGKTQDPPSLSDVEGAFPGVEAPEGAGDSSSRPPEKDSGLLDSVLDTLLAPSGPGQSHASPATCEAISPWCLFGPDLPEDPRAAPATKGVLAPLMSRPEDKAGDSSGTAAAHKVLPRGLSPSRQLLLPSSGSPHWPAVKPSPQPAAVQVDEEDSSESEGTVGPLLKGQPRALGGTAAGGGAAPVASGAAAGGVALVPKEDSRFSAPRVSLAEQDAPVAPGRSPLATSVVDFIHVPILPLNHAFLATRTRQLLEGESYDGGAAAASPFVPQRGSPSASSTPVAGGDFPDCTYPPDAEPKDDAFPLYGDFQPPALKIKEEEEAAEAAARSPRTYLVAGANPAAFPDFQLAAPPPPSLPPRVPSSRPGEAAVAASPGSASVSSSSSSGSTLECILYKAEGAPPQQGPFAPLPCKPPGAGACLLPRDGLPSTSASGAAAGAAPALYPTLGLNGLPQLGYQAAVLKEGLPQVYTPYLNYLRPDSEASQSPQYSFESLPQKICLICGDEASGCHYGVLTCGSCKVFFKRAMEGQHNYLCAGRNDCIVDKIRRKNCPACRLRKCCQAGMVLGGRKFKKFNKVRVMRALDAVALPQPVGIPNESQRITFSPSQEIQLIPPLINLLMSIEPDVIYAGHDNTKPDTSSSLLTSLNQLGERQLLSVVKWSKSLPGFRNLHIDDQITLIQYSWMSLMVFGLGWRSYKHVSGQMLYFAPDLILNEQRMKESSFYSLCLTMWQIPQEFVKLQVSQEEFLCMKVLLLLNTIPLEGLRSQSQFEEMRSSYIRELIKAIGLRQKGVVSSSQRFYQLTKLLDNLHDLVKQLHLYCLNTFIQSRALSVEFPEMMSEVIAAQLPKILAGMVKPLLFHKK
# T47D [3] = assay: Agonistic activity in T47D human breast carcinoma cell proliferation assay; Not active up to 10 uM; assay type: functional, cell-based
# T47D [4] = assay: Agonistic activity in T47D human breast carcinoma cell proliferation assay; assay type: functional
# Progesterone receptor [5] = target: T1, Progesterone receptor; assay: Displacement of [3H]R5020 from uterine progesterone receptor of estrogen-primed rabbits; Not active
# Progesterone receptor [6] = target: T1, Progesterone receptor; assay: Displacement of [3H]R5020 from uterine progesterone receptor of estrogen-primed rabbits; Not active up to 10 uM
SMILES,IC50 (Progesterone receptor [2]),SC200 (T47D [1]),other results
COc1ccc(-n2nc(C=O)c3c2C(Cc2cccc4ccccc24)CCC3)cc1 (centres undefined),12.7 nM,inactive,
O=S(=O)(N/N=C/c1nn(-c2ccc(F)cc2)c2c1CCCC2Cc1cccc2ccccc12)c1ccccc1 (centres undefined),> 10000 nM,inactive,
O/N=C/c1nn(-c2ccc(F)cc2)c2c1CCCC2Cc1cccc2ccccc12 (centres undefined),628 nM,,
O=Cc1nn(-c2ccc(F)cc2)c2c1CCCC2Cc1ccccc1Cl (centres undefined),10.5 nM,,SC200 (T47D [4]): 100 nM
Fc1ccc(-n2nc(C3OCCO3)c3c2C(Cc2cccc4ccccc24)CCC3)cc1 (centres undefined),97 nM,,
O=C(OCc1nn(-c2ccc(F)cc2)c2c1CCCC2Cc1cccc2ccccc12)c1ccccc1 (centres undefined),182 nM,inactive,
O=Cc1nn(-c2ccc(F)cc2)c2c1CCCC2Cc1ccccc1 (centres undefined),3 nM,,SC200 (T47D [4]): 22 nM
O=C(N/N=C/c1nn(-c2ccc(F)cc2)c2c1CCCC2Cc1cccc2ccccc12)c1ccccc1 (centres undefined),> 10000 nM,,SC200 (T47D [4]): 2265 nM
CCN(CC)C(=O)c1nn(-c2ccc(F)cc2)c2c1CCCC2Cc1cccc2ccccc12 (centres undefined),3000 nM,,
CC(C)(C)c1ccc(CC2CCCc3c(C=O)nn(-c4ccc(F)cc4)c32)cc1 (centres undefined),1000 nM,,
O=Cc1nn(-c2ccccc2)c2c1CCCC2Cc1cccc2ccccc12 (centres undefined),6 nM,,SC200 (T47D [4]): 56 nM
O=Cc1nn(-c2ccc(F)cc2)c2c1CCCC2Cc1ccc(F)c(F)c1 (centres undefined),2 nM,,SC200 (T47D [4]): 81 nM
CC(C)c1ccc(CC2CCCc3c(C=O)nn(-c4ccc(F)cc4)c32)cc1 (centres undefined),2190 nM,,
COc1ccc(CC2CCCc3c(C=O)nn(-c4ccc(F)cc4)c32)cc1OC (centres undefined),1890 nM,,
N#Cc1nn(-c2ccc(F)cc2)c2c1CCCC2Cc1cccc2ccccc12 (centres undefined),41 nM,inactive,
O=Cc1nn(-c2ccc(Cl)cc2)c2c1CCCC2Cc1cccc2ccccc12 (centres undefined),9 nM,inactive,
Fc1ccc(-n2nc(/C=N/c3ccccc3)c3c2C(Cc2cccc4ccccc24)CCC3)cc1 (centres undefined),2.3 nM,,SC200 (T47D [4]): 185 nM
CC(=O)OCc1nn(-c2ccc(F)cc2)c2c1CCCC2Cc1cccc2ccccc12 (centres undefined),73 nM,inactive,
CC(=O)N/N=C/c1nn(-c2ccc(F)cc2)c2c1CCCC2Cc1cccc2ccccc12 (centres undefined),> 10000 nM,,
O=C(NCc1ccccc1)c1nn(-c2ccc(F)cc2)c2c1CCCC2Cc1cccc2ccccc12 (centres undefined),> 10000 nM,,
O=Cc1nn(-c2ccc(O)cc2)c2c1CCCC2Cc1cccc2ccccc12 (centres undefined),,,IC50 (Progesterone receptor [5]): Not Active
CC(O)c1nn(-c2ccc(F)cc2)c2c1CCCC2Cc1cccc2ccccc12 (centres undefined),236 nM,,
CCN(CC)Cc1nn(-c2ccc(F)cc2)c2c1CCCC2Cc1cccc2ccccc12 (centres undefined),1380 nM,,
CN(C)/N=C/c1nn(-c2ccc(F)cc2)c2c1CCCC2Cc1cccc2ccccc12 (centres undefined),547 nM,inactive,
O=Cc1nn(-c2cccc(Cl)c2)c2c1CCCC2Cc1cccc2ccccc12 (centres undefined),69 nM,,
Cc1ccc(CC2CCCc3c(C=O)nn(-c4ccc(F)cc4)c32)cc1 (centres undefined),7.7 nM,,SC200 (T47D [4]): 275 nM
CCCCCCCCOC(=O)c1ccc(-n2nc(C=O)c3c2C(Cc2cccc4ccccc24)CCC3)cc1 (centres undefined),> 10000 nM,inactive,
COC(=O)c1ccc(-n2nc(C=O)c3c2C(Cc2cccc4ccccc24)CCC3)cc1 (centres undefined),,,IC50 (Progesterone receptor [6]): Not Active

# More lines, main results first:
IC50 (Progesterone receptor [2]),SMILES,SC200 (T47D [1]),other results
851 nM,CCCCOC(=O)c1ccc(-n2nc(C=O)c3c2C(Cc2cccc4ccccc24)CCC3)cc1 (centres undefined),inactive,
49 nM,CN/N=C/c1nn(-c2ccc(F)cc2)c2c1CCCC2Cc1cccc2ccccc12 (centres undefined),inactive,
163 nM,COc1ccc(CC2CCCc3c(C=O)nn(-c4ccc(F)cc4)c32)cc1 (centres undefined),,
52 nM,OCc1nn(-c2ccc(F)cc2)c2c1CCCC2Cc1cccc2ccccc12 (centres undefined),,SC200 (T47D [3]): inactive
56.4 nM,O=Cc1nn(-c2ccc(F)cc2)c2c1CCCC2Cc1ccc2ccccc2c1 (centres undefined),inactive,
1000 nM,CCC(=O)c1nn(-c2ccc(F)cc2)c2c1CCCC2Cc1cccc2ccccc12 (centres undefined),,
5.3 nM,CC(=O)OC(OC(C)=O)c1nn(-c2ccc(F)cc2)c2c1CCCC2Cc1cccc2ccccc12 (centres undefined),,SC200 (T47D [4]): 72 nM
90 nM,CCOC(=O)OCc1nn(-c2ccc(F)cc2)c2c1CCCC2Cc1cccc2ccccc12 (centres undefined),inactive,
11.9 nM,O=Cc1nn(-c2ccc(F)cc2)c2c1CCCC2Cc1ccc(Cl)cc1 (centres undefined),inactive,
6.5 nM,O=Cc1nn(-c2ccc(F)cc2)c2c1CCCC2Cc1ccc(F)cc1 (centres undefined),,SC200 (T47D [4]): 27 nM
1570 nM,COC(=O)Nc1nn(-c2ccc(F)cc2)c2c1CCCC2Cc1cccc2ccccc12 (centres undefined),,
10000 nM,O=Cc1nn(-c2ccc(F)cc2)c2c1CCCC2Cc1ccc(-c2ccccc2)cc1 (centres undefined),,
16.8 nM,COc1cccc(CC2CCCc3c(C=O)nn(-c4ccc(F)cc4)c32)c1 (centres undefined),,SC200 (T47D [4]): 417 nM
4010 nM,CCCCCCCC(=O)OCc1nn(-c2ccc(F)cc2)c2c1CCCC2Cc1cccc2ccccc12 (centres undefined),inactive,
3.2 nM,O=Cc1nn(-c2ccc(F)cc2)c2c1CCCC2Cc1cccc2ccccc12 (centres undefined),,SC200 (T47D [4]): 105 nM
690 nM,CCC(O)c1nn(-c2ccc(F)cc2)c2c1CCCC2Cc1cccc2ccccc12 (centres undefined),,
147 nM,C=Cc1nn(-c2ccc(F)cc2)c2c1CCCC2Cc1cccc2ccccc12 (centres undefined),inactive,
1380 nM,Fc1ccc(-n2nc(CNCc3ccccc3)c3c2C(Cc2cccc4ccccc24)CCC3)cc1 (centres undefined),,
1760 nM,CC(=O)c1nn(-c2ccc(F)cc2)c2c1CCCC2Cc1cccc2ccccc12 (centres undefined),,
